Experimental data taken from PubChem BioAssay AID330 (DTP/NCI, 2004).
Several values for one entry are separate records, joined by “and”; a condition that tells them apart may be missing. Equal values may be shown once. Toxic doses and inconclusive results are not listed. Rule for the calls: active = survival T/C of 150% or more; inactive = T/C below 125% in these data.

Tested on: P388 leukemia ip, CD2F1 mice, survival T/C
Experiment: NCI In Vivo Anticancer Drug Screen. Data for tumor model P388 Leukemia (intraperitoneal) in CD2F1 (CDF1) mice
Details: endpoint: median survival time, higher = longer survival
In short: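 Mice carrying the transplanted tumor received test compound or vehicle. Survival was recorded in each group, and the value is the treated-group measurement divided by that of the vehicle-treated control group.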

[1] = dose: 50.0 mg/kg/injection, schedule: Q01DX009 (ip), vehicle: saline
[2] = dose: 100.0 mg/kg/injection, schedule: Q01DX009 (ip), vehicle: saline
[3] = dose: 200.0 mg/kg/injection, schedule: Q01DX009 (ip), vehicle: saline
[4] = dose: 100.0 mg/kg/injection, schedule: Q04DX002 (ip), vehicle: saline with Tween-80
[5] = dose: 200.0 mg/kg/injection, schedule: Q04DX002 (ip), vehicle: saline with Tween-80
[6] = dose: 50.0 mg/kg/injection, schedule: Q01DX009 (ip), vehicle: Klucel (hydroxypropylcellulose) (HPC)
[7] = dose: 400.0 mg/kg/injection, schedule: Q04DX002 (ip), vehicle: saline with Tween-80
[8] = dose: 25.0 mg/kg/injection, schedule: Q01DX005 (ip), vehicle: Klucel (hydroxypropylcellulose) (HPC)
[9] = dose: 50.0 mg/kg/injection, schedule: Q01DX005 (ip), vehicle: Klucel (hydroxypropylcellulose) (HPC)
[10] = dose: 100.0 mg/kg/injection, schedule: Q01DX005 (ip), vehicle: Klucel (hydroxypropylcellulose) (HPC)
[11] = dose: 200.0 mg/kg/injection, schedule: Q01DX005 (ip), vehicle: Klucel (hydroxypropylcellulose) (HPC)

Measured: T/C

CCOC(=O)C1=C(C)N(Cc2ccccc2)C2(O)C1=CC(=O)C(Cl)=C2Cl (stereo not given)
inactive: [1] 99 % of control | [2] 105 % of control | [3] 108 % of control

Nc1ccc2c(C(F)(F)F)cc(=O)oc2c1
inactive: dose: 50.0 mg/kg/injection, schedule: Q01DX005 (ip), vehicle: saline with Tween-80 106 % of control | dose: 100.0 mg/kg/injection, schedule: Q01DX005 (ip), vehicle: saline with Tween-80 99 % of control | dose: 200.0 mg/kg/injection, schedule: Q01DX005 (ip), vehicle: saline with Tween-80 94 % of control

O=C(O)c1cccc(C(=O)O)c1Sc1c(C(=O)O)cccc1C(=O)O
inactive: dose: 100.0 mg/kg/injection, schedule: Q01DX001 (ip), vehicle: saline with Tween-80 99 % of control | dose: 200.0 mg/kg/injection, schedule: Q01DX001 (ip), vehicle: saline with Tween-80 95 % of control | dose: 400.0 mg/kg/injection, schedule: Q01DX001 (ip), vehicle: saline with Tween-80 91 % of control

Cc1ccc(S(=O)(=O)n2cccn2)cc1
inactive: dose: 6.25 mg/kg/injection, schedule: Q01DX009 (ip), vehicle: distilled water + Tween-80 95 % of control | dose: 12.5 mg/kg/injection, schedule: Q01DX009 (ip), vehicle: distilled water + Tween-80 100 % of control | dose: 25.0 mg/kg/injection, schedule: Q01DX009 (ip), vehicle: distilled water + Tween-80 94 % of control | dose: 25.0 mg/kg/injection, schedule: Q01DX009 (ip), vehicle: other 88 % of control | dose: 50.0 mg/kg/injection, schedule: Q01DX009 (ip), vehicle: distilled water + Tween-80 105 % of control | dose: 100.0 mg/kg/injection, schedule: Q01DX009 (ip), vehicle: distilled water + Tween-80 99 % of control | dose: 100.0 mg/kg/injection, schedule: Q01DX009 (ip), vehicle: other 113 % of control | dose: 200.0 mg/kg/injection, schedule: Q01DX009 (ip), vehicle: other 104 % of control | dose: 400.0 mg/kg/injection, schedule: Q01DX009 (ip), vehicle: other 112 % of control

N=C(N)N1CCNc2ccc(Cl)cc2C1
inactive: [4] 96 % of control | [5] 91 % of control

C=C1CC23CC4C5C6(C)CC(O)CC57C(C2C(O)C1C(O)C37)N4C6 (stereo not given)
inactive: dose: 12.5 mg/kg/injection, schedule: Q01DX009 (ip), vehicle: Klucel (hydroxypropylcellulose) (HPC) 101 % of control | dose: 25.0 mg/kg/injection, schedule: Q01DX009 (ip), vehicle: Klucel (hydroxypropylcellulose) (HPC) 106 % of control | [6] 101 % of control

NC(=S)c1cccc(C2Nc3ccccc3S2)c1 (stereo not given)
inactive: [4] 94 % of control | [5] 95 % of control | [7] 96 % of control

CCn1c2ccccc2nc2cc3c(cc21)c(Cl)c(=O)c1ccccc13
inactive: dose: 50.0 mg/kg/injection, schedule: Q01DX009 (ip), vehicle: saline with Tween-80 108 % of control | dose: 100.0 mg/kg/injection, schedule: Q01DX009 (ip), vehicle: saline with Tween-80 104 % of control | dose: 200.0 mg/kg/injection, schedule: Q01DX009 (ip), vehicle: saline with Tween-80 98 % of control

O=C1CCC(c2n[nH]c(=S)o2)N1Cc1ccccc1 (stereo not given)
inactive: dose: 60.0 mg/kg/injection, schedule: Q01DX005 (ip), vehicle: saline with Tween-80 98 % of control | dose: 120.0 mg/kg/injection, schedule: Q01DX005 (ip), vehicle: saline with Tween-80 100 % of control | dose: 240.0 mg/kg/injection, schedule: Q01DX005 (ip), vehicle: saline with Tween-80 103 % of control

CN(C(=O)c1ccccc1)C1CCCC(=O)CC1 (stereo not given)
inactive: [8] 105 % of control | [9] 100 % of control | [10] 99 % of control | [11] 97 % of control

Cc1cc2nc(N)sc2cc1C
inactive: dose: 12.5 mg/kg/injection, schedule: Q01DX009 (ip), vehicle: saline 98 % of control | dose: 25.0 mg/kg/injection, schedule: Q01DX009 (ip), vehicle: saline 100 % of control | [1] 102 % of control | [2] 102 % of control

CCOC(=O)c1c(N)[nH]c(SSc2[nH]c(N)c(C(=O)OCC)c2C(=O)OCC)c1C(=O)OCC
inactive: dose: 75.0 mg/kg/injection, schedule: Q01DX009 (ip), vehicle: saline 118 % of control | dose: 300.0 mg/kg/injection, schedule: Q01DX009 (ip), vehicle: saline 100 % of control

CCOC(=O)CSc1ccccc1
inactive: [1] 100 % of control | [2] 98 % of control | [3] 100 % of control | dose: 400.0 mg/kg/injection, schedule: Q01DX009 (ip), vehicle: saline 100 % of control

COc1cc2c(cc1OC)C(c1ccccc1[N+](=O)[O-])=NCC2
inactive: [9] 99 % of control | [10] 94 % of control | [11] 92 % of control

O[P+]1(c2ccccc2)OC(C(F)(F)F)(C(F)(F)F)C(C(F)(F)F)(C(F)(F)F)O1
inactive: [1] 108 % of control | [2] 99 % of control | [3] 107 % of control

COc1ccc(C(=O)Nc2cccnc2)cc1
inactive: [6] 98 % of control | dose: 100.0 mg/kg/injection, schedule: Q01DX009 (ip), vehicle: Klucel (hydroxypropylcellulose) (HPC) 100 % of control | dose: 200.0 mg/kg/injection, schedule: Q01DX009 (ip), vehicle: Klucel (hydroxypropylcellulose) (HPC) 98 % of control

CC1(C)CNC(=O)C2=C(O1)C(=O)OC2
inactive: [4] 100 % of control | [5] 100 % of control | [7] 103 % of control

Cc1ccsc1S(N)(=O)=O
inactive: dose: 12.5 mg/kg/injection, schedule: Q01DX005 (ip), vehicle: Klucel (hydroxypropylcellulose) (HPC) 95 % of control | [8] 98 % of control | [9] 106 % of control and 107 % of control | [10] 113 % of control | [11] 113 % of control

BrC=C1c2ccccc2-c2ccccc21
inactive: dose: 100.0 mg/kg/injection, schedule: Q04DX003 (ip), vehicle: Klucel (hydroxypropylcellulose) (HPC) 100 % of control | dose: 200.0 mg/kg/injection, schedule: Q04DX003 (ip), vehicle: Klucel (hydroxypropylcellulose) (HPC) 91 % of control | dose: 400.0 mg/kg/injection, schedule: Q04DX003 (ip), vehicle: Klucel (hydroxypropylcellulose) (HPC) 102 % of control

Cc1c(N=Nc2ccc([N+](=O)[O-])cc2)nc2scc(-c3ccccc3)n12
inactive: dose: 25.0 mg/kg/injection, schedule: Q04DX002 (ip), vehicle: Klucel (hydroxypropylcellulose) (HPC) 121 % of control | dose: 100.0 mg/kg/injection, schedule: Q04DX002 (ip), vehicle: Klucel (hydroxypropylcellulose) (HPC) 86 % of control

CC(C)CC(NC(=O)CF)C(=O)O (stereo not given)
inactive: dose: 1.25 mg/kg/injection, schedule: Q01DX009 (ip), vehicle: saline with Tween-80 96 % of control | dose: 2.5 mg/kg/injection, schedule: Q01DX009 (ip), vehicle: saline with Tween-80 109 % of control | dose: 5.0 mg/kg/injection, schedule: Q01DX009 (ip), vehicle: saline with Tween-80 124 % of control

OCCN1CCN(CC/C=C2/c3ccccc3Sc3ccc(Cl)cc32)CC1
inactive: dose: 0.39 mg/kg/injection, schedule: Q01DX005 (ip), vehicle: saline 100 % of control | dose: 0.78 mg/kg/injection, schedule: Q01DX005 (ip), vehicle: saline 100 % of control | dose: 1.56 mg/kg/injection, schedule: Q01DX005 (ip), vehicle: saline 105 % of control | dose: 6.25 mg/kg/injection, schedule: Q01DX005 (ip), vehicle: saline 123 % of control | dose: 12.5 mg/kg/injection, schedule: Q04DX003 (ip), vehicle: saline 118 % of control | dose: 25.0 mg/kg/injection, schedule: Q04DX003 (ip), vehicle: saline 122 % of control | dose: 33.0 mg/kg/injection, schedule: Q04DX003 (ip), vehicle: saline 90 % of control | dose: 50.0 mg/kg/injection, schedule: Q04DX003 (ip), vehicle: saline 90 % of control | dose: 75.0 mg/kg/injection, schedule: Q04DX003 (ip), vehicle: saline 100 % of control

O=S(=O)(O)c1ccc(/C2=c3\cc/c([n-]3)=C(\c3ccc(S(=O)(=O)O)cc3)c3ccc([n-]3)/C(c3ccc(S(=O)(=O)O)cc3)=c3/cc/c([n-]3)=C(\c3ccc(S(=O)(=O)O)cc3)c3ccc2[n-]3)cc1.[Zn]
inactive: dose: 0.98 mg/kg/injection, schedule: Q01DX009 (ip), vehicle: saline with Tween-80 103 % of control and 111 % of control | dose: 1.95 mg/kg/injection, schedule: Q01DX009 (ip), vehicle: saline with Tween-80 100 % of control and 104 % of control | dose: 3.9 mg/kg/injection, schedule: Q01DX009 (ip), vehicle: saline with Tween-80 99 % of control and 114 % of control | dose: 7.8 mg/kg/injection, schedule: Q01DX009 (ip), vehicle: saline with Tween-80 114 % of control | dose: 15.62 mg/kg/injection, schedule: Q01DX009 (ip), vehicle: saline with Tween-80 100 % of control and 112 % of control
